The text below walks through data of patent US7265131B2, “Isoquinolinone derivatives and their use as therapeutic agents” (Exelixis, Inc., priority 2002, dated 2007).

This test addresses T1, LXRα (Homo sapiens, UniProt Q13133).
T1 construct: were made by cloning the appropriate full-length cDNAs into the pBacPakhis1 vector; poly-His (pBacPakhis1) (N); made in house; host or cells: Sf9 insect cells (baculovirus), crude lysate
The test is described as follows: Scintillation proximity assay (SPA), competition with 3H-24,25-epoxycholesterol. In kind it is binding. To be noted: average Ki with respect to LXR α. On the procedure: The SPA assay measures the radioactive signal generated by the binding of ^3H-24,25-epoxycholesterol to LXRα or LXRβ. The basis of the assay is the use of SPA beads containing a scintillant, such that when binding to the receptor brings the labeled ligand into proximity with the bead, the energy from the label stimulates the scintillant to emit light. The light is measured using a standard microplate scintillation reader. The ability of a ligand to bind to a receptor can be measured by assessing the degree to which the compound can compete off a radiolabelled ligand with known affinity for the receptor.
1. Label: ^3H-24,25-epoxy-cholesterol (Amersham)
2. LXRα lysate: Baculovirus expressed LXRα/RXR heterodimer with RXR having a 6-HIS tag produced as a crude lysate
4. SPA beads: Ysi copper His-tag SPA beads (Amersham)
Baculovirus expression plasmids for human RXR α (accession No NM_002957), LXR a (accession No U22662), LXR β (accession No U07132) were made by cloning the appropriate full-length cDNAs into the pBacPakhis1 vector (Clontech, CA) following standard procedures. Insertion of the cDNAs into the pBAcPakhis1 vector polylinker created an in frame fusion to the cDNA to an N-terminal poly-His tag present in pBacPakhis1. Correct cloning was confirmed by restriction mapping, and/or sequencing.
Cell lysates were prepared by infecting healthy, Sf9 insect cells at a density of approximately 1.25×10^6/ml at 27° C., in a total volume of 500 mL per 1 L sized spinner flasks, cultured under standard conditions. To prepare LXRα lysate, insect cells were co-transfected with the LXR α expression cassette at an M.O.I of 0.5 to 0.8 and with the RXR expression cassette at a M.O.I. of approximately 1.6. To prepare LXRβ lysate, insect cells were co-transfected with the LXR β expression cassette at an M.O.I of approximately 1.6 and with the RXR expression cassette at a M.O.I. of approximately 1.6. In both cases cells were incubated for 48 hours at 27° C. with constant shaking prior to harvesting.
After incubation, cells were harvested by centrifugation and pelleted. Cell pellets were resuspended in two volumes of ice-cold freshly prepared extraction buffer (20 mM Tris pH 8.0, 10 mM Imidazole, 400 mM NaCl, containing one EDTA free protease inhibitor tablet (Roche Catalog No: 1836170) per 10 ml of extraction buffer).
Cells were homogenized slowly on ice using a Douncer to achieve 80-90% cell lysis. The homogenate was centrifuged in a pre-chilled rotor (Ti50 or Ti70, or equivalent) at 45,000 rpm for 30 minutes at 4° C. Aliquots of the supernatant were frozen on dry ice and stored frozen at −80° C. until quantification and quality control. Aliquots of the lysates were tested in the SPA assay to ensure lot to lot consistency, and via SDS-PAGE analysis after purification using Ni-NTA Resin (Qiagen) and adjusted for protein concentration and expression level prior to use in screening assays.
[^3H] 24,25 Epoxycholesterol (EC) solution: For a single 384-well plate (or 400 wells), 21 μL of [^3H] EC (specific activity 76.5 Ci/mmol, concentration 3.2 mCi/mL) was added to 4.4 mL of 2×SPA buffer to provide for a final concentration of 200 nM. For each additional 384-well plate, an additional 19.1 μL of [^3H] EC was added to 4.0 mL of additional 2×SPA buffer. The final concentration of [^3H] EC in the well was 50 nM.
LXRα lysate (prepared as above) was diluted with protein lysate dilution buffer. 1400 μL of diluted LXRα lysate was prepared per 384-well plate, (or 200 wells) and 1120 μL of diluted LXRα lysate was prepared for each additional 384-well plate.
SPA bead solution: For a 384-well plate (or 400 wells), 3.75 mL of 2×SPA buffer w/o EDTA, 2.25 mL of H2O, and 1.5 mL of Ysi His-tag SPA beads (vortex well before taking) were mixed together. For each additional 384-well plate, an additional 3.5 mL of 2×SPA buffer w/o EDTA, 2.1 mL of H2O, and 1.4 mL of Ysi His-tag SPA beads were mixed together. […]
A general note: Scintillation proximity formats need no separation of bound from free tracer.

Some results are limits rather than exact numbers.

T1 sequence (Q13133 whole entry): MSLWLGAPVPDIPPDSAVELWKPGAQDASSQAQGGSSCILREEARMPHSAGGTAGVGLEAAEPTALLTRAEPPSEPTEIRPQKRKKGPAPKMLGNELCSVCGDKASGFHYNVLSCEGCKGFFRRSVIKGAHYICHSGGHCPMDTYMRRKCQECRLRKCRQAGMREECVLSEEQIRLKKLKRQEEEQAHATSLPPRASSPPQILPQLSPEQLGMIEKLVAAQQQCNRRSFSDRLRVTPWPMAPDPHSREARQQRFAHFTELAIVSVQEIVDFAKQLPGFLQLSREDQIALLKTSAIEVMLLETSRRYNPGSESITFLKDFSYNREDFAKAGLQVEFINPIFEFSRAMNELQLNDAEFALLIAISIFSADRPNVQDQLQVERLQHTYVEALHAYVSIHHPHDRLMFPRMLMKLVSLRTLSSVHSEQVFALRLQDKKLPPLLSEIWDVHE
T1 sequence (P19793 whole entry, further chain): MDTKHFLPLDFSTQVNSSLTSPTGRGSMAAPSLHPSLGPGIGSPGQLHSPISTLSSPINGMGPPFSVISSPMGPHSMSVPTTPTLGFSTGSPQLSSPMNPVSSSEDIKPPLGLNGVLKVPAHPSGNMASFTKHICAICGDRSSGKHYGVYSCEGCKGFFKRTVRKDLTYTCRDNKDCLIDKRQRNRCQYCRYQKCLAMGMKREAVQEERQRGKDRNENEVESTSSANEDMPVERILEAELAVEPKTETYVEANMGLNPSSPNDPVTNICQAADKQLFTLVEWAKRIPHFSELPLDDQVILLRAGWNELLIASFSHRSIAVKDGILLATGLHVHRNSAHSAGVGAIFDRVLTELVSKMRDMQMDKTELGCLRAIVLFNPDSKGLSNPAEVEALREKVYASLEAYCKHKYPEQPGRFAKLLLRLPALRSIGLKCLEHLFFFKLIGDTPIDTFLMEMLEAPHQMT

With `Cc1ccc(Cn2c(C#CC(C)(C)O)cc3ccccc3c2=O)c(C)c1` [2-(2,4-dimethylbenzyl)-3-(3-hydroxy-3-methylbut-1-ynyl)-2H-isoquinolin-1-one], the Ki is more than 500 nM.

Compound `Cc1ccc(Cn2c(-c3ccc(Oc4ccccc4)cc3)cc3ccccc3c2=O)c(C)c1` [2-(2,4-dimethylbenzyl)-3-(4-phenoxyphenyl)-2H-isoquinolin-1-one] displayed an inhibitory constant (Ki) of 10 to 150 nM.

The compound `Cc1cccc(-c2cc3ccccc3c(=O)n2Cc2ccc(C)cc2C)c1` [2-(2,4-dimethylbenzyl)-3-m-tolyl-2H-isoquinolin-1-one] came in with a Ki of 150 to 500 nM.

For the compound `Cc1ccc(Cn2c(-c3ccsc3)cc3ccccc3c2=O)c(C)c1` [2-(2,4-dimethylbenzyl)-3-thiophen-3-yl-2H-isoquinolin-1-one], the Ki is more than 500 nM.

In turn, `Cc1cccc(-c2cc3ccccc3c(=O)n2Cc2ccccc2)c1` [2-benzyl-3-m-tolyl-2H-isoquinolin-1-one] came in with a Ki of more than 500 nM.

`O=c1c2c(Cl)cccc2cc(-c2cc(-c3cc(C(F)(F)F)cc(C(F)(F)F)c3)co2)n1Cc1ccc(F)cc1F` [3-[4-(3,5-bis-trifluoromethylphenyl)furan-2-yl]-8-chloro-2-(2,4-difluorobenzyl)-2H-isoquinolin-1-one] registered an inhibitory constant (Ki) of 150 to 500 nM.

As to `Nc1ccc(-c2coc(-c3cc4cccc(Cl)c4c(=O)n3Cc3ccc(F)cc3F)c2)cc1C(F)(F)F` [3-[4-(4-amino-3-trifluoromethylphenyl)furan-2-yl]-8-chloro-2-(2,4-difluorobenzyl)-2H-isoquinolin-1-one], the inhibition constant Ki lay within 10 to 150 nM.

`O=c1c2c(Cl)cccc2cc(-c2ccc(Oc3ccccc3)cc2)n1Cc1ccc(F)cc1F` [8-chloro-2-(2,4-difluorobenzyl)-3-(4-phenoxyphenyl)-2H-isoquinolin-1-one] displayed a Ki of 10 to 150 nM.

For `O=c1c2c(Cl)cccc2cc(-c2ccc(Oc3cnccn3)cc2)n1Cc1ccc(F)cc1F` [8-chloro-2-(2,4-difluorobenzyl)-3-[4-(pyrazin-2-yloxy)phenyl]-2H-isoquinolin-1-one], the inhibition constant (Ki) was 10 to 150 nM.

In turn, `CS(=O)(=O)c1ccc(-c2ccc(-c3cc4cccc(Cl)c4c(=O)n3Cc3ccc(F)cc3F)s2)cc1` [8-chloro-2-(2,4-difluorobenzyl)-3-[5-(4-methanesulfonylphenyl)thiophen-2-yl]-2H-isoquinolin-1-one] registered a Ki of 10 to 150 nM.

`O=c1c2c(Cl)cccc2cc(-c2ccc(Oc3ccccc3)cc2)n1CC1CCCCC1` [8-chloro-2-cyclohexylmethyl-3-(4-phenoxyphenyl)-2H-isoquinolin-1-one] showed a Ki of 10 to 150 nM.

In turn, `O=c1c2c(Cl)cccc2cc(-c2ccc(Oc3ccccc3)cc2)n1Cc1cccs1` [8-chloro-3-(4-phenoxyphenyl)-2-thiophen-2-ylmethyl-2H-isoquinolin-1-one] registered a Ki of 10 to 150 nM.

Turning to `CCOc1ccc(-c2csc(-c3cc4cccc(Cl)c4c(=O)n3Cc3ccc(F)cc3F)c2)cc1Cl` [8-chloro-3-[4-(3-chloro-4-ethoxyphenyl)thiophen-2-yl]-2-(2,4-difluorobenzyl)-2H-isoquinolin-1-one], the Ki was more than 500 nM.

With `Cc1ccc(Cn2c(-c3ccc(Oc4ccccc4)cc3)cc3cccc(C)c3c2=O)cc1` [8-methyl-2-(4-methylbenzyl)-3-(4-phenoxyphenyl)-2H-isoquinolin-1-one], the inhibition constant (Ki) was 10 to 150 nM.

A word on the Ki: it is a dissociation constant, usually derived from enzyme kinetics or from competition with a known ligand. Lower therefore signals tighter binding.
